Experimental data taken from US9474759B2 (priority 2011, dated 2016).

Assays:
[1] = tested on: murine norovirus-1 (MNV-1); assay: MNV-1 replication in RAW267.4 cells, TCID50 (Example 1); format: cell-based; conditions: Norwalk virus, MOI 2, TCID50 assay, read-out: ED50, replication of murine norovirus (MNV)
[2] = tested on: Norwalk virus (HG23 cells); assay: microbe, parasite or virus in culture; format: cell-based; conditions: HG23, read-out: Inhibition [ED50 (μM)] against various viruses: Calicivirus, HG23 cells
[3] = tested on: MNV-1; assay: Cell-based screening, MNV-1 in RAW267.4 cells (Example 2); parameters: species or system murine norovirus; conditions: Norwalk virus; RAW267.4 cells; read-out: Inhibition [ED50 (μM)] against various viruses: Calicivirus, MNV-1
Protocol: (§1) 3. Cell-based screening of inhibitor. The effects of each inhibitor on the viral replication were examined. The list of viruses and corresponding cell lines are listed above in Table 2. Briefly, confluent cells were inoculated with virus at a MOI of 5 or 0.05 for 1 hr, and medium was replaced with medium containing mock-medium or each compound (up to 100 μM). The virus infected cells were further incubated for up to 96 hrs, and the replication of virus was measured by TCID50 assay with the 10-fold dilution of each sample used for virus titration (Reed and Muench, 1938). In some viruses, the virus protein and genome expression levels were detected by Western blot analysis and real-time qRT-PCR, respectively, as described below. The IC50s of the compounds were calculated.

[4] = tested on: FIPV; assay: Cell-based screening, FIPV in CRFK cells (Example 2); parameters: species or system feline infectious peritonitis virus; conditions: Alphacoronavirus 1; CRFK cells; read-out: Inhibition [ED50 (μM)] against various viruses: Coronavirus, FIPV
Protocol: as §1

[5] = tested on: EV71; assay: Cell-based screening, EV71 in Vero cells (Example 2); parameters: species or system enterovirus 71; conditions: Enterovirus A, EV71; Vero cells; read-out: Inhibition [ED50 (μM)] against various viruses: Picornavirus, EV71
Protocol: as §1

[6] = target: recombinant 3C or 3CL of MD145 (Norovirus Hu/GII.4/MD145-12/1987/US (Maryland virus), UniProt Q8V0P3); assay: FRET protease assay, MD145 3CL (Example 2); format: biochemical, norovirus strain MD145
[7] = target: HAV 3Cpro (Human hepatitis A virus genotype IB, UniProt P08617); assay: Optimized FRET protease assay, HAV 3Cpro (Example 3); format: biochemical
Protocol: Fluorogenic substrates with Edans and Dabcyl as a donor and quencher pair were purchased from Bachem (coronavirus substrate) or synthesized by GenScript. The viral proteases and the corresponding fluorogenic substrates are listed in Table 5, along with their sources.
Stock solutions (10 mM) of the substrates and the compounds were prepared in dimethyl sulfoxide (DMSO) and diluted in assay buffer. The assay buffer comprised 20 mM HEPES buffer containing NaCl (0 mM for HAV 3Cpro and 200 mM for all other proteases), 0.4 mM EDTA, Glycerol (60% for NV and MD145 3CLpro and 30% for TGEV and 229E 3CLpro), and 6 mM (NV and MD145 3CLpro and HAV 3Cpro)_or 4 mM (all other proteases) dithiothreitol (DTT) at pH 6 (coronavirus 3CLpro) or 8 (all other proteases). Each protease was mixed with serial dilutions of each compound or with DMSO in 25 μl of assay buffer and incubated at 37° C. for 30 min, followed by the addition of 25 μl of assay buffer containing substrate. Fluorescence readings were obtained using an excitation wavelength of 360 nm and an emission wavelength of 460 nm on a fluorescence microplate reader (FLx800; Biotek, Winooski, Vt.) at 1 h following the addition of substrate. The relative fluorescence units (RFU) were determined by subtracting background values (substrate-containing well without protease) from the raw fluorescence values. […]

[8] = target: Norwalk virus 3CL protease (NV3CL protease), recombinant (Norovirus, UniProt Q83883); assay: Recombinant NV protease FRET inhibition assay (Edans-[…]-Dabcyl substrate), FIG. 4; format: biochemical; conditions: 2.5 μM enzyme, 300 nM Edans-EPDFHLQGPEDLAK-Dabcyl, 30 min incubation, 30° C., pH 8.0
Protocol: After a 30 minute incubation period, 5 μL of 12 μM Edans-[…]-Dabcyl (SEQ ID NO:1) substrate in DMSO was then added and the increase in fluorescence was monitored for 30 minutes at an excitation and emission wavelength of 360 and 460 nm, respectively. Using a HORIBA FluoroMax 4 spectrofluorometer. Hydrolysis curves were linear. The final enzyme and substrate concentrations were 2.5 μM and 300 nM, respectively. […] Furthermore, the nature of the cap was also important (compare, for example, inhibitors A and D).

[9] = target: MD145 3CLpro (codon-optimized, full-length, N-terminal 6 His, recombinant) (Lordsdale virus, UniProt P54634); assay: biochemical; parameters: species or system norovirus strain MD145 (human norovirus GII)
[10] = target: SARS-CoV 3CLpro (codon-optimized, N-terminal 6 His, recombinant) (Severe acute respiratory syndrome coronavirus, UniProt P0C6X7); assay: biochemical

Sequence of HAV 3Cpro (P08617 1520-1738): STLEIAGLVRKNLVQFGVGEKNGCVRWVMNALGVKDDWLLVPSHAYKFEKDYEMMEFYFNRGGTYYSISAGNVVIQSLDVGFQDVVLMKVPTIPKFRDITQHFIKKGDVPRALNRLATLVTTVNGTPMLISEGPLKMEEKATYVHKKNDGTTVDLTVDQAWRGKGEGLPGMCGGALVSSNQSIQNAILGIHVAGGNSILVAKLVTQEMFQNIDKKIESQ
Sequence of MD145 3CLpro (codon-optimized, full-length, N-terminal 6 His, recombinant) (P54634 1009-1189): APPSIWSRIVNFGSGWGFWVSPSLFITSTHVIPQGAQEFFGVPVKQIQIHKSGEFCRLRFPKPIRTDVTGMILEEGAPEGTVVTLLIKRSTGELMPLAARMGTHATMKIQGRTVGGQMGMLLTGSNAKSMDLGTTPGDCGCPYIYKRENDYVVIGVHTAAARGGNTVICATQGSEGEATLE
Sequence of Norwalk virus 3CL protease (NV3CL protease), recombinant (Q83883 1101-1281): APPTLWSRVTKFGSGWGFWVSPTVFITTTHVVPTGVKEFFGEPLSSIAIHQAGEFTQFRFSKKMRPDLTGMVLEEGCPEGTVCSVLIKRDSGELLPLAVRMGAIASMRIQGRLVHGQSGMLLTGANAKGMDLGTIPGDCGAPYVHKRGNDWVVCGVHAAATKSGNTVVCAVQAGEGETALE
Sequence of recombinant 3C or 3CL of MD145 (Q8V0P3 entry or part of it): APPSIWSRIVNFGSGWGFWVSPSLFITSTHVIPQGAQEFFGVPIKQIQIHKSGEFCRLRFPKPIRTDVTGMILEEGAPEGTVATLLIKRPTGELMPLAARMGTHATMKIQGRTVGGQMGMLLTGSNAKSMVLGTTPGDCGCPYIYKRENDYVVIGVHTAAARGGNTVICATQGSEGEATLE

CC(C)C[C@H](NC(=O)OCc1ccccc1)C(=O)N[C@H](C=O)C[C@@H]1CCNC1=O [GC373]
EC50 [1]: 5.5 µM
EC50 [2]: 2.1 µM
EC50 [3]: 6.5 µM
EC50 [4]: 0.3 µM
EC50 [5]: 11 µM
IC50 [6]: 20.3 µM
inhibitory effect on HAV 3Cpro (in words) [7]: all viral proteases except HAV 3Cpro
IC50 [8]: 1.82 µM
IC50 [9]: 1.18 µM
IC50 [10]: 3.48 ± 1.59 µM
